Results from publication PMC9827108 (Cancer Discovery, 2022).
Read-outs that look alike come from different tables or passages of the source.

Key:
[1] = system: patients with EGFRm, MET-amplified/overexpressed NSCLC; type: in vivo, human
[2] = type: in vivo, human; conditions: Parts B and D

Structure (SMILES) | Any AE grade ≥3 possibly causally related to the labelled drug(s) only ([1]; All Part B) | Any AE leading to discontinuation of the labelled drug ([1]; All Part B) | Any AE leading to interruption or reduction of the labelled drug ([1]; All Part B) | Any SAE leading to discontinuation of the labelled drug ([1]; All Part B) | Any SAE leading to interruption or reduction of the labelled drug ([1]; All Part B) | Any SAE possibly causally related to the labelled drug(s) only ([1]; All Part B) | Labelled drug discontinued due to possibly causally related AE: vomiting ([1]; All Part B) | Any AE grade ≥3 possibly causally related to the labelled drug(s) only ([1]; Part B1) | Any AE leading to discontinuation of the labelled drug ([1]; Part B1) | Any AE leading to interruption or reduction of the labelled drug ([1]; Part B1) | Any SAE leading to discontinuation of the labelled drug ([1]; Part B1) | Any SAE leading to interruption or reduction of the labelled drug ([1]; Part B1) | Any SAE possibly causally related to the labelled drug(s) only ([1]; Part B1) | Any AE grade ≥3 possibly causally related to the labelled drug(s) only ([1]; Part B2) | Any AE leading to discontinuation of the labelled drug ([1]; Part B2) | Any AE leading to interruption or reduction of the labelled drug ([1]; Part B2) | Any SAE leading to discontinuation of the labelled drug ([1]; Part B2) | Any SAE leading to interruption or reduction of the labelled drug ([1]; Part B2) | Any SAE possibly causally related to the labelled drug(s) only ([1]; Part B2) | Any AE grade ≥3 possibly causally related to the labelled drug(s) only ([1]; Part B3) | further results
C=CC(=O)Nc1cc(Nc2nccc(-c3cn(C)c4ccccc34)n2)c(OC)cc1N(C)CCN(C)C [osimertinib] | 8 (6) n (%) | 24 (17) n (%) | 59 (43%) n (%) | 20 (14) n (%) | 27 (20) n (%) | 0 n (%) | 2 (1%) n (%) | 3 (4) n (%) | 12 (17) n (%) | 22 (32) n (%) | 9 (13) n (%) | 10 (14) n (%) | 0 n (%) | 3 (6) n (%) | 9 (18) n (%) | 25 (49) n (%) | 8 (16) n (%) | 11 (22) n (%) | 0 n (%) | 2 (11) n (%) | Labelled drug discontinued due to possibly causally related AE: pneumonitis ([1]; All Part B): 3 (2%) n (%); Any AE leading to interruption or reduction of the labelled drug ([1]; All Part B, listed as Osimertinib): 59 (43) n (%); Any AE leading to discontinuation of the labelled drug ([1]; Part B3): 3 (17) n (%); Any AE leading to interruption or reduction of the labelled drug ([1]; Part B3): 12 (67) n (%); Any SAE leading to discontinuation of the labelled drug ([1]; Part B3): 3 (17) n (%); Any SAE leading to interruption or reduction of the labelled drug ([1]; Part B3): 6 (33) n (%); Any SAE possibly causally related to the labelled drug(s) only ([1]; Part B3): 0 n (%); Any AE grade ≥3 possibly causally related to the labelled drug(s) only ([1]; Part D): 2 (5) n (%); Any AE leading to discontinuation of the labelled drug ([1]; Part D): 8 (19) n (%); Any AE leading to interruption or reduction of the labelled drug ([1]; Part D): 13 (31) n (%); Any SAE leading to discontinuation of the labelled drug ([1]; Part D): 2 (5) n (%); Any SAE leading to interruption or reduction of the labelled drug ([1]; Part D): 10 (24) n (%); Any SAE possibly causally related to the labelled drug(s) only ([1]; Part D): 1 (2) n (%)
C[C@@H](c1ccc2nccn2c1)n1nnc2ncc(-c3cnn(C)c3)nc21 [savolitinib, (S)-1-(1-(Imidazo[1,2-a]pyridin-6-yl)ethyl)-6-(1-methyl-1H-pyrazol-4-yl)-1H-[1,2, 3]triazolo[4,5-b]pyrazine] | 34 (25) n (%) | 49 (36) n (%) | 61 (44%) n (%) | 28 (20) n (%) | 20 (14) n (%) | 15 (11) n (%) | 4 (3%) n (%) | 14 (20) n (%) | 19 (28) n (%) | 27 (39) n (%) | 11 (16) n (%) | 9 (13) n (%) | 6 (9) n (%) | 13 (25) n (%) | 20 (39) n (%) | 25 (49) n (%) | 11 (22) n (%) | 9 (18) n (%) | 6 (12) n (%) | 7 (39) n (%) | Accumulation and time dependence of PK at steady state ([2]; multiple dosing): neither apparent accumulation nor time-dependent PK changes upon multiple dosing; half-life ([2]; human, plasma, oral, Mean terminal elimination half-life (t1/2λz), single and multiple dosing): 2 to 4 h; Tmax ([2]; human, plasma, oral, Median tmax and tssmax, savolitinib 600 mg/300 mg q.d. + osimertinib 80 mg q.d.): 2 to 4 h; Any AE leading to interruption or reduction of the labelled drug ([1]; All Part B, listed as Savolitinib): 61 (44) n (%); Deaths due to AEs considered possibly causally related to study drug ([1]; Part B2): one case was considered possibly related to savolitinib (acute renal failure); Any AE leading to discontinuation of the labelled drug ([1]; Part B3): 10 (56) n (%); Any AE leading to interruption or reduction of the labelled drug ([1]; Part B3): 9 (50) n (%); Any SAE leading to discontinuation of the labelled drug ([1]; Part B3): 6 (33) n (%); Any SAE leading to interruption or reduction of the labelled drug ([1]; Part B3): 2 (11) n (%); Any SAE possibly causally related to the labelled drug(s) only ([1]; Part B3): 3 (17) n (%); Any AE grade ≥3 possibly causally related to the labelled drug(s) only ([1]; Part D): 5 (12) n (%); Any AE leading to discontinuation of the labelled drug ([1]; Part D): 15 (36) n (%); Any AE leading to interruption or reduction of the labelled drug ([1]; Part D): 16 (38) n (%); Any SAE leading to discontinuation of the labelled drug ([1]; Part D): 6 (14) n (%); Any SAE leading to interruption or reduction of the labelled drug ([1]; Part D): 7 (17) n (%); Any SAE possibly causally related to the labelled drug(s) only ([1]; Part D): 2 (5) n (%); Labelled drug discontinued due to possibly causally related AE: myalgia ([1]; Part D): 3 (7%) n (%); Labelled drug discontinued due to possibly causally related AE: pyrexia ([1]; Part D): 2 (5%) n (%); Labelled drug discontinued due to possibly causally related AE: rash ([1]; Part D): 2 (5%) n (%)
